Results: ChEMBL document CHEMBL5346872 (Eur J Med Chem, 2023)
Activity calls are given as the source filed them. The calls are words filed in the database; no cut-off is given here.

What was measured:
[1] = biological target: T1, beta-catenin-B-cell lymphoma 9 protein complex (Homo sapiens, UniProt P35222); assay: Inhibition of beta-catenin (unknown origin) to BCL9-FAM (unknown origin) protein-protein interaction preincubated for 2 hrs followed by BCL9 addition and measured after 2 hrs by fluorescence polarization assay; format: protein-complex assay
T1 sequence (P35222 whole entry): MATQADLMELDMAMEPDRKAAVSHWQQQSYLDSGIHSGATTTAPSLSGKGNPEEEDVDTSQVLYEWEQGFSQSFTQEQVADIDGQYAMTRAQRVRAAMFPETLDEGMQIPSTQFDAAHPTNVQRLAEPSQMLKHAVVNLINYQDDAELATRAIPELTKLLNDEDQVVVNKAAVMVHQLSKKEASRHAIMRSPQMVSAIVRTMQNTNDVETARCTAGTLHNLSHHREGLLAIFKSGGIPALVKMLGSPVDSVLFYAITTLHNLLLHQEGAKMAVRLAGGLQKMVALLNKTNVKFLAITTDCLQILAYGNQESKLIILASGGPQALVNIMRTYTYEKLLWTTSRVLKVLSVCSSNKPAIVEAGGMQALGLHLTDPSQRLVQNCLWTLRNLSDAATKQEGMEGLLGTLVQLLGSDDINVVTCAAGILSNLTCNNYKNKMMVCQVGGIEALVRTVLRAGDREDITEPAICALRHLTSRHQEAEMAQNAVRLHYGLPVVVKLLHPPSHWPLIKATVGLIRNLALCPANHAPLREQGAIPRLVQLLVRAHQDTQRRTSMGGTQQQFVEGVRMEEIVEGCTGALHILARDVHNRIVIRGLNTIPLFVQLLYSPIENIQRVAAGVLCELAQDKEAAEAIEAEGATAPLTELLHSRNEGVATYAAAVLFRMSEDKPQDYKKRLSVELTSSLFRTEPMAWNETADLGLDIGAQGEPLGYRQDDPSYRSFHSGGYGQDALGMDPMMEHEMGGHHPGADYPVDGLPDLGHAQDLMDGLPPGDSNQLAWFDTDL
T1 sequence (O00512 whole entry): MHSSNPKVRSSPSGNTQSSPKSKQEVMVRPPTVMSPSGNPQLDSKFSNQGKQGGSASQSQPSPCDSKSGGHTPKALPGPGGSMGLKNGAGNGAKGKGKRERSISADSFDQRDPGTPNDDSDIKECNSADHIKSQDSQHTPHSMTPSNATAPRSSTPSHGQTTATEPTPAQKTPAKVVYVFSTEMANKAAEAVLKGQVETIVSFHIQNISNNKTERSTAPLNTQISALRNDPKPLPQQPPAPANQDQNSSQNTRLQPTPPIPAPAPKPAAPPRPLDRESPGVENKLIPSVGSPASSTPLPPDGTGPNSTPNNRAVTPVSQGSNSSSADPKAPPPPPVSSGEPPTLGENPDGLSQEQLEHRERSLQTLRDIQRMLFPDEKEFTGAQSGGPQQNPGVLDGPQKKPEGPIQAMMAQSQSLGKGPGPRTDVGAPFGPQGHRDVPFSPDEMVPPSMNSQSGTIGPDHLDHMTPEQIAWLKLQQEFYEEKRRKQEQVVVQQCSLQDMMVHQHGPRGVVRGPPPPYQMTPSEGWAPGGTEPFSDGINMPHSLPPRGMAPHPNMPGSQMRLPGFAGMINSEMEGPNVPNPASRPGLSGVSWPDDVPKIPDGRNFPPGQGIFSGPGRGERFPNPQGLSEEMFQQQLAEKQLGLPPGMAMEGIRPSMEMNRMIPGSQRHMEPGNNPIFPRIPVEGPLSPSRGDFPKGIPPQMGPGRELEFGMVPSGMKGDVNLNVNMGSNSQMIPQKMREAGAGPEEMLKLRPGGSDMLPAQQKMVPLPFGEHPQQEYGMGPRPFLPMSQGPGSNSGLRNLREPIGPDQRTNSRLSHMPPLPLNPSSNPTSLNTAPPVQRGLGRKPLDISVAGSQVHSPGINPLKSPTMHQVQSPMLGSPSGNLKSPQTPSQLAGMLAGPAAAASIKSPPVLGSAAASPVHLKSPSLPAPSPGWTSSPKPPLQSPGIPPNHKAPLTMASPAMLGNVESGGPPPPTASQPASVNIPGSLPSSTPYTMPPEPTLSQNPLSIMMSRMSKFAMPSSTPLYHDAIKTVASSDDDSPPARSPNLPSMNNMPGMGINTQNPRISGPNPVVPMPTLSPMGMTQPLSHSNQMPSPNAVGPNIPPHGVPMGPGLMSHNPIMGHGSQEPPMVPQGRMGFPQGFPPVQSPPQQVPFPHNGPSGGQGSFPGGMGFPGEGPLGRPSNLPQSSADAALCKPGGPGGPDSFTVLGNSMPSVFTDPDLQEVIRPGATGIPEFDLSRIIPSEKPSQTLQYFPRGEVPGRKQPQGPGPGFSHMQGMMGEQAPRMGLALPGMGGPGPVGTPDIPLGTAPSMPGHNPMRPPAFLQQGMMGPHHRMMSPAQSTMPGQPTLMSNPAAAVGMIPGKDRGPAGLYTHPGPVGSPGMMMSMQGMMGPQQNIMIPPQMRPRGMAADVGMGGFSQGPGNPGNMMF

[2] = Inhibition of Wnt/beta-catenin signaling in mouse CT26 cells assessed as reduction in Axin2 expression incubated for 24 hrs by qPCR analysis; details: CT26, 24 h
CT26 [3] = assay: Antiproliferative activity against mouse CT26 cells assessed as reduction in cell viability incubated for 48 hrs by CCK-8 assay; details: CT26, 48 h
CT26 [4] = assay: Antitumor activity against mouse CT26 cells implanted in BALB/c mouse assessed as tumor growth inhibition at 30 mg/kg, ip administered once daily and measured on day 14; format: functional; details: CT26, 336 h, time 14 day, read-out: TGI
CT26 [5] = assay: Induction of apoptosis in mouse CT26 cells assessed as late apoptosis at 5 to 40 uM incubated for 24 hrs by annexin V and PI staining based flow cytometry analysis; format: functional, cell-based; details: dose 5-40 µM
[6] = Inhibition of Wnt/beta-catenin signaling in BCL9 knockdown mouse CT26 cells assessed as reduction in Axin2 expression incubated for 24 hrs by qPCR analysis; details: CT26, 24 h
[7] = Drug concentration in human HCT-116 cells at 2 uM incubated for 24 hrs by HPLC-MS analysis; format: ADME, cell-based; details: hct-116, 24 h
[8] = Inhibition of Wnt/beta-catenin signaling in human HCT116 cells incubated for 24 hrs by TCF/LEF reporter assay; details: HCT-116, 24 h
CT26 [9] = assay: Inhibition of Wnt/beta-catenin signaling in mouse CT26 cells assessed as reduction in Axin2 expression incubated for 24 hrs by Western blot analysis; format: cell-based; details: dose 5-20 µM
CT26 [10] = assay: Antitumor activity against mouse CT26 cells implanted in BALB/c mouse assessed as increase in granzyme B expression at 30 mg/kg, ip administered once daily and measured on day 14 by qPCR analysis; format: functional, organism-based; details: time 14.0 day
CT26 [11] = assay: Antitumor activity against mouse CT26 cells implanted in BALB/c mouse assessed as induction of immune microenvironment at 30 mg/kg, ip administered once daily and measured on day 14 by qPCR analysis; format: functional, organism-based; details: time 14.0 day
CT26 [12] = assay: Antitumor activity against mouse CT26 cells implanted in BALB/c mouse assessed as downregulation of interleukin-10 gene expression at 30 mg/kg, ip administered once daily and measured on day 14 by qPCR analysis; format: functional, organism-based; details: time 14.0 day
[13] = Inhibition of Wnt/beta-catenin signaling in human HCT-116 cells assessed as reduction in Axin2 expression incubated for 24 hrs by qPCR analysis; details: HCT-116, 24 h
HEK293 = assay: Antiproliferative activity against HEK293 cells assessed as reduction in cell viability incubated for 48 hrs by CCK8 assay; details: Homo sapiens, HEK293, 48 h
HCT-116 = assay: Antiproliferative activity against human HCT-116 cells assessed as reduction in cell viability incubated for 48 hrs by CCK8 assay; details: HCT-116, 48 h
CT26 [14] = assay: Induction of apoptosis in mouse CT26 cells assessed as early apoptosis at 5 to 40 uM incubated for 24 hrs by annexin V and PI staining based flow cytometry analysis; format: functional, cell-based; details: dose 5-40 µM
[15] = Induction of immune microenvironment in BALB/c mouse spleen assessed as increase in granzyme B at 5 to 10 uM after 24 hrs by flow cytometry analysis (reference value: 16.7 %); format: functional; details: dose 5-10 µM
[16] = Toxicity in BALB/c mouse assessed as body weight loss at 30 mg/kg, ip administered once daily measured after 14 days; format: organism-based; details: in vivo, 336 h, time 14 day
RKO = assay: Antiproliferative activity against human RKO cells assessed as reduction in cell viability incubated for 48 hrs by CCK8 assay
[17] = Drug concentration in human HCT-116 cells assessed as retention ratio at 2 uM incubated for 24 hrs by HPLC-MS analysis; format: ADME, cell-based; details: hct-116, 24 h
CT26 [18] = details: Mus musculus, dose 30.0 mg/kg, route ip, time 14.0 day
Description: In vivo inhibition of Wnt/beta-catenin signaling in mouse CT26 cells implanted in BALB/c mouse assessed as reduction in Axin2 expression at 30 mg/kg, ip administered once daily and measured on day 14 by qPCR analysis

## O=c1c(O)c(-c2ccc(O)c(O)c2)oc2c(-c3ccccc3)c(O)cc(O)c12
[1]
  IC50: 18.7 µM

## O=c1c(O)c(-c2ccc(O)c(OCCCN3CCCC3)c2)oc2cc(O)cc(O)c12
[2]
  IC50: 19.2 µM
CT26 [3]
  IC50: 6.26 µM
[1]
  IC50: 25.7 µM

## CN1CCN(CCCOc2cc(-c3oc4cc(O)cc(O)c4c(=O)c3O)ccc2O)CC1
CT26 [4]
  inhibition in vivo at 30 mg/kg: 81.4%
CT26 [5]
  Activity: Active
[2]
  IC50: 2.81 µM
[6]
  IC50: 27.9 µM
CT26 [3]
  IC50: 3.21 µM
[7]
  Drug uptake: 0.63 µM
[8]
  IC50: 15.2 µM
CT26 [9]
  inhibition: Dose-Dependent Effect
CT26 [10]
  Activity: Active
CT26 [11]
  Activity: Active
CT26 [12]
  Activity: Active
[13]
  IC50: 9.71 µM
HEK293
  IC50: 17.7 µM
HCT-116
  IC50: 4.4 µM
CT26 [14]
  Activity: Active
[15]
  Activity: 31.1%
[16]
  Activity: Non-Toxic
RKO
  IC50: 26.7 µM
[17]
  Drug uptake: 31.31%
CT26 [18]
  inhibition: Active

## O=c1c(O)c(-c2ccc(O)c(OCCN3CCCCCC3)c2)oc2cc(O)cc(O)c12
[2]
  IC50: 13.9 µM
CT26 [3]
  IC50: 7.04 µM
[1]
  IC50: 37.4 µM

## CN1CCN(CCOc2cc(-c3oc4cc(O)cc(O)c4c(=O)c3O)ccc2O)CC1
[2]
  IC50: 17.8 µM
CT26 [3]
  IC50: 11.7 µM
[1]
  IC50: 78.9 µM

## O=c1c(O)c(-c2ccc(O)c(OCCN3CCCC3)c2)oc2cc(O)cc(O)c12
[2]
  IC50: 17.6 µM
CT26 [3]
  IC50: 8.2 µM
[1]
  IC50: 56.8 µM

## COc1cc(OCCCN2CCOCC2)c2c(=O)c(O)c(-c3ccc(O)c(O)c3)oc2c1
[1]
  IC50: 6.09 µM

## O=c1c(O)c(-c2ccc(O)c(O)c2)oc2cc(OCCCN3CCOCC3)cc(O)c12
[1]
  IC50: 12.3 µM

## O=c1c(O)c(-c2ccc(O)c(O)c2)oc2c(-c3ccc(O)cc3)c(O)cc(O)c12
[1]
  IC50: 4.46 µM

## O=c1c(O)c(-c2ccc(O)c(OCCN3CCCCC3)c2)oc2cc(O)cc(O)c12
[2]
  IC50: 23.1 µM
CT26 [3]
  IC50: 8.67 µM
[1]
  IC50: 31.1 µM

## O=c1c(O)c(-c2ccc(O)c(OCCCN3CCCCC3)c2)oc2cc(O)cc(O)c12
[2]
  IC50: 29.7 µM
CT26 [3]
  IC50: 7.18 µM
[1]
  IC50: 18.6 µM

## CCN(CC)CCOc1cc(-c2oc3cc(O)cc(O)c3c(=O)c2O)ccc1O
[2]
  IC50: 40.7 µM
CT26 [3]
  IC50: 11.8 µM
[1]
  IC50: 27.9 µM

## O=c1c(O)c(-c2ccc(O)c(OCCN3CCOCC3)c2)oc2cc(O)cc(O)c12
[2]
  IC50: 38.4 µM
CT26 [3]
  IC50: 9.96 µM
[1]
  IC50: 30.2 µM

## O=c1c(O)c(-c2ccc(O)c(O)c2)oc2cc(O)cc(O)c12 [QUERCETIN]
CT26 [4]
  inhibition in vivo at 30 mg/kg: 69.4%
[2]
  IC50: 7.7 µM
[6]
  IC50: 23.5 µM
CT26 [3]
  IC50: 14.4 µM
[8]
  IC50: 4.71 µM
CT26 [9]
  inhibition: Dose-Dependent Effect
[13]
  IC50: 3.57 µM
HCT-116
  IC50: 10.4 µM
[16]
  Activity: Non-Toxic

## O=c1c(O)c(-c2ccc(O)c(OCCCN3CCCCCC3)c2)oc2cc(O)cc(O)c12
[2]
  IC50: 34.7 µM
CT26 [3]
  IC50: 35 µM
[1]
  IC50: 20.1 µM

## CN1CCN(CCCOc2cc(O)c3c(=O)c(O)c(-c4ccc(O)c(O)c4)oc3c2)CC1
[1]
  IC50: 9.13 µM

## O=c1c(O)c(-c2ccc(O)c(OCCCN3CCOCC3)c2)oc2cc(O)cc(O)c12
[2]
  IC50: 6.29 µM
CT26 [3]
  IC50: 7.85 µM

## O=C1[C@H](Cc2ccc(O)cc2)N2C(=O)CCN(C(=O)NCc3ccccc3)[C@H]2CN1Cc1cccc2ccccc12
CT26 [4]
  inhibition in vivo at 30 mg/kg: 40.8%
[16]
  Activity: Non-Toxic

## COc1cc(OCCCN2CCN(C)CC2)c2c(=O)c(O)c(-c3ccc(O)c(O)c3)oc2c1
[1]
  IC50: 9.69 µM

## CCN(CC)CCCOc1cc(-c2oc3cc(O)cc(O)c3c(=O)c2O)ccc1O
[2]
  IC50: 11.2 µM
CT26 [3]
  IC50: 23.7 µM
[1]
  IC50: 11.7 µM
